Experimental data reported in the supplement of paper PMC11061612.

Experiments:
[1] = tested on: HPAF-II (Pancreatic Carcinoma); assay: Bliss excess, mean over the matrix (fraction); higher = more synergy
In short: (§1)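 Bliss excess equals the observed combination effect minus the expected value EA + EB − EA·EB, where EA and EB are the effects of each agent alone. Combination Emax is the second-highest inhibition within the matrix. Inhibition was scaled from CellTiter-Glo 2.0 luminescence, with 0 set by vehicle wells and 1 by blank wells, after 72 hours of two-drug dosing of cells plated in 1536-well plates.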

[2] = tested on: BHT-101 (Thyroid Gland Carcinoma); assay: combination Emax (second highest fraction inhibited in the dose matrix, 72 h); higher = more inhibition; extreme values may be limits of the assay
In short: as §1

[3] = tested on: BxPC-3 (Pancreatic Carcinoma); assay: as above
In short: as §1

[4] = tested on: COR-L88 (Small Cell Lung Carcinoma); assay: as above
In short: as §1

[5] = tested on: ES6 (Ewing's Sarcoma); assay: as above
In short: as §1

[6] = tested on: GAK (Melanoma); assay: as above
In short: as §1

[7] = tested on: HPAF-II (Pancreatic Carcinoma); assay: as above
In short: as §1

[8] = tested on: IA-LM (Non-Small Cell Lung Carcinoma); assay: as above
In short: as §1

[9] = tested on: NCI-H2373 (Mesothelioma); assay: as above
In short: as §1

[10] = tested on: OVCAR-3 (Ovarian Carcinoma); assay: as above
In short: as §1

[11] = tested on: P32-ISH (Burkitt's Lymphoma); assay: as above
In short: as §1

[12] = tested on: PL4 (Pancreatic Carcinoma); assay: as above
In short: as §1

[13] = tested on: SK-CO-1 (Colorectal Carcinoma); assay: as above
In short: as §1

[14] = tested on: SNU-423 (Hepatocellular Carcinoma); assay: as above
In short: as §1

[15] = tested on: SUP-M2 (T-Cell Non-Hodgkin's Lymphoma); assay: as above
In short: as §1

[16] = tested on: SiHa (Cervical Carcinoma); assay: as above
In short: as §1

| SMILES | Bliss excess [1] | combination Emax [2] | combination Emax [3] | combination Emax [4] | combination Emax [5] | combination Emax [6] | combination Emax [7] | combination Emax [8] | combination Emax [9] | combination Emax [10] | combination Emax [11] | combination Emax [12] | combination Emax [13] | combination Emax [14] | combination Emax [15] | combination Emax [16] |
| --- | --- | --- | --- | --- | --- | --- | --- | --- | --- | --- | --- | --- | --- | --- | --- | --- |
| COc1nnc2ccc(N3CCC(c4ccc(OCCN5CCN(C)C(=O)[C@H]5C)cc4)CC3)nn12 [AZD5153] + Cn1cnc2c(F)c(Nc3ccc(Br)cc3Cl)c(C(=O)NOCCO)cc21 [Selumetinib] (first compound max 1 µM, 7x7, partner max 10 µM) | 0.0634 | 0.966 | 0.616 | 0.247 | 0.297 | 0.612 | 0.868 | 0.457 | 0.439 | 0.54 | 0.65 | 0.851 | 0.804 | 0.424 | 1 | 0.628 |
| NC1(C(=O)N[C@@H](CCO)c2ccc(Cl)cc2)CCN(c2ncnc3[nH]ccc23)CC1 [Capivasertib] + CC(=O)c1c(C)c2cnc(Nc3ccc(N4CCNCC4)cn3)nc2n(C2CCCC2)c1=O [Palbociclib] (first compound max 10 µM, 7x7, partner max 10 µM) | 0.0187 | 0.675 | 0.23 | 0.226 | 0.46 | 0.474 | 0.197 | 0.206 | 0.538 | 0.379 | 0.774 | 0.478 | 0.419 | 0.458 | 0.89 | 0.252 |
| NC1(C(=O)N[C@@H](CCO)c2ccc(Cl)cc2)CCN(c2ncnc3[nH]ccc23)CC1 [Capivasertib] + CC(C)n1c(=O)n(C)c2cnc3cc(F)c(-c4ccc(OCCCN5CCCCC5)nc4)cc3c21 [AZD1390] (first compound max 10 µM, 7x7, partner max 0.3 µM) | -0.0016 | 0.341 | 0.181 | 0.0851 | 0.349 | 0.219 | 0.245 | 0.263 | 0.545 | 0.227 | 0.557 | 0.24 | 0.281 | 0.503 | 0.19 | 0.241 |
| NC1(C(=O)N[C@@H](CCO)c2ccc(Cl)cc2)CCN(c2ncnc3[nH]ccc23)CC1 [Capivasertib] + CCN(CCO)CCCOc1ccc2c(Nc3cc(CC(=O)Nc4cccc(F)c4)[nH]n3)ncnc2c1 [AZD2811] (first compound max 10 µM, 7x7, partner max 1 µM) | 0.0052 | 0.353 | 0.241 | 0.253 | 0.418 | 0.219 | 0.218 | 0.304 | 0.491 | 0.344 | 0.951 | 0.393 | 0.64 | 0.571 | 0.992 | 0.299 |
| NC1(C(=O)N[C@@H](CCO)c2ccc(Cl)cc2)CCN(c2ncnc3[nH]ccc23)CC1 [Capivasertib] + COc1nnc2ccc(N3CCC(c4ccc(OCCN5CCN(C)C(=O)[C@H]5C)cc4)CC3)nn12 [AZD5153] (first compound max 10 µM, 7x7, partner max 1 µM) | 0.0188 | 0.759 | 0.399 | 0.496 | 0.518 | 0.376 | 0.389 | 0.317 | 0.591 | 0.526 | 1 | 0.613 | 0.438 | 0.513 | 0.915 | 0.644 |
| NC1(C(=O)N[C@@H](CCO)c2ccc(Cl)cc2)CCN(c2ncnc3[nH]ccc23)CC1 [Capivasertib] + C[C@@H]1COCCN1C2=NC(=NC(=C2)C3(CC3)[S@](=N)(=O)C)C4=C5C=CNC5=NC=C4 [AZD6738] (first compound max 10 µM, 7x7, partner max 10 µM) | -0.0105 | 0.681 | 0.429 | 0.435 | 0.667 | 0.509 | 0.5 | 0.324 | 0.707 | 0.461 | 0.927 | 0.777 | 0.668 | 0.586 | 1 | 0.413 |
| NC1(C(=O)N[C@@H](CCO)c2ccc(Cl)cc2)CCN(c2ncnc3[nH]ccc23)CC1 [Capivasertib] + Cn1cnc2c(F)c(Nc3ccc(Br)cc3Cl)c(C(=O)NOCCO)cc21 [Selumetinib] (first compound max 10 µM, 7x7, partner max 10 µM) | 0.0623 | 0.902 | 0.426 | 0.257 | 0.434 | 0.757 | 0.75 | 0.374 | 0.664 | 0.317 | 0.489 | 0.726 | 0.886 | 0.491 | 0.507 | 0.233 |
| Cc1nc(Nc2ncc(C(=O)Nc3c(C)cccc3Cl)s2)cc(N2CCN(CCO)CC2)n1 [Dasatinib] + CC(=O)Nc1cccc(-n2c(=O)n(C3CC3)c(=O)c3c(Nc4ccc(I)cc4F)n(C)c(=O)c(C)c32)c1 [Trametinib] (first compound max 2 µM, 7x7, partner max 1 µM) | 0.0843 | 0.998 | 0.868 | 0.2 | 0.439 | 0.788 | 0.928 | 0.654 | 0.391 | 0.494 | 0.411 | 0.955 | 0.994 | 0.832 | 0.126 | 0.329 |
| COc1cc2ncnc(Nc3ccc(F)c(Cl)c3)c2cc1OCCCN1CCOCC1 [Gefitinib] + CC(C)n1c(=O)n(C)c2cnc3cc(F)c(-c4ccc(OCCCN5CCCCC5)nc4)cc3c21 [AZD1390] (first compound max 10 µM, 7x7, partner max 0.3 µM) | -0.066 | 0.255 | 0.285 | 0.21 | 0.194 | 0.226 | 0.29 | 0.202 | 0.119 | 0.0817 | 0.333 | 0.125 | 0.241 | 0.126 | 0.116 | 0.0755 |
| CS(=O)(=O)CCNCc1ccc(-c2ccc3ncnc(Nc4ccc(OCc5cccc(F)c5)c(Cl)c4)c3c2)o1 [Lapatinib] + C[C@@H](Oc1cc(-c2cnn(C3CCNCC3)c2)cnc1N)c1c(Cl)ccc(F)c1Cl [Crizotinib] (first compound max 10 µM, 7x7, partner max 10 µM) | 0.0211 | 0.98 | 0.946 | 0.57 | 0.953 | 0.75 | 0.614 | 0.489 | 0.559 | 0.548 | 1 | 0.884 | 0.94 | 0.952 | 1 | 0.252 |
| CC(=O)c1c(C)c2cnc(Nc3ccc(N4CCNCC4)cn3)nc2n(C2CCCC2)c1=O [Palbociclib] + CC1(C)CCC(CN2CCN(c3ccc(C(=O)NS(=O)(=O)c4ccc(NCC5CCOCC5)c([N+](=O)[O-])c4)c(Oc4cnc5[nH]ccc5c4)c3)CC2)=C(c2ccc(Cl)cc2)C1 [Venetoclax] (first compound max 10 µM, 7x7, partner max 1 µM) | -0.034 | 0.431 | 0.0941 | 0.331 | 0.232 | 0.205 | 0.0506 | 0.0755 | 0.223 | 0.0774 | 0.66 | 0.184 | 0.43 | 0.179 | 0.738 | 0.123 |
| CC(=O)c1c(C)c2cnc(Nc3ccc(N4CCNCC4)cn3)nc2n(C2CCCC2)c1=O [Palbociclib] + Cc1c2c(nn1C)CSCc1cc(n(C)n1)CSc1cc(c3ccccc3c1)OCCCc1c(C(=O)O)n(C)c3c-2c(Cl)ccc13 [AZD5991] (first compound max 10 µM, 7x7, partner max 1 µM) | -0.0186 | 0.675 | 0.301 | 0.307 | 0.412 | 0.369 | 0.142 | 0.306 | 0.328 | 0.167 | 1 | 0.263 | 0.455 | 0.315 | 1 | 0.0939 |
| CC(=O)c1c(C)c2cnc(Nc3ccc(N4CCNCC4)cn3)nc2n(C2CCCC2)c1=O [Palbociclib] + Cn1cnc2c(F)c(Nc3ccc(Br)cc3Cl)c(C(=O)NOCCO)cc21 [Selumetinib] (first compound max 10 µM, 7x7, partner max 10 µM) | -0.0337 | 0.813 | 0.414 | 0.223 | 0.349 | 0.697 | 0.629 | 0.281 | 0.354 | 0.185 | 0.699 | 0.523 | 0.858 | 0.241 | 0.88 | 0.16 |
| C[C@@H](c1ccc2nccn2c1)n1nnc2ncc(-c3cnn(C)c3)nc21 [Savolitinib] + CC1(C)CCC(CN2CCN(c3ccc(C(=O)NS(=O)(=O)c4ccc(NCC5CCOCC5)c([N+](=O)[O-])c4)c(Oc4cnc5[nH]ccc5c4)c3)CC2)=C(c2ccc(Cl)cc2)C1 [Venetoclax] (first compound max 1 µM, 7x7, partner max 1 µM) | -0.018 | 0.14 | 0.216 | 0.207 | 0.179 | 0.199 | 0.131 | 0.197 | 0.138 | 0.0969 | 0.0681 | 0.125 | 0.0828 | 0.233 | 0.182 | 0.137 |
| C[C@@H](c1ccc2nccn2c1)n1nnc2ncc(-c3cnn(C)c3)nc21 [Savolitinib] + Cc1c2c(nn1C)CSCc1cc(n(C)n1)CSc1cc(c3ccccc3c1)OCCCc1c(C(=O)O)n(C)c3c-2c(Cl)ccc13 [AZD5991] (first compound max 1 µM, 7x7, partner max 1 µM) | -0.0163 | 0.133 | 0.136 | 0.23 | 0.174 | 0.264 | 0.125 | 0.268 | 0.133 | 0.195 | 1 | 0.189 | 0.114 | 0.2 | 1 | 0.167 |
